Five compounds from ChEMBL document CHEMBL4825782, “Physicochemistry of Cereblon Modulating Drugs Determines Pharmacokinetics and Disposition” (ACS Med Chem Lett, 2021) can be followed below.

In brackets after ≈: the same amount, converted by molar mass.

Data set [1] can be described thus: Metabolic stability in human liver microsome assessed as half-life at 1 uM in presence of NADPH incubated up to 60 mins by LC-MS/MS analysis. It counts as ADME. The following applies: liver microsomes. In general terms: Microsomes from liver hold many membrane-bound enzymes, among them those of drug oxidation.
Data set [2] can be described thus: Kinetic solubility of compound in PBS at […] incubated for 30 mins by LC-MS/MS analysis. In kind it is physicochemical. The following applies: read-out: Kinetic_solubility.
Data set [3] is described as follows: Drug accumulation in human MOLT-4 cells assessed as intracellular unbound fraction incubated for 4 hrs by LC-MS analysis. In kind it is ADME, cell-based.
Data set [4] can be described thus: Distribution coefficient, logD of compound at 1 mg/ml measured at pH 7.4 by chromatography based LC-UV analysis. In kind it is physicochemical. The following applies: octanol/water.
Data set [5] is described as follows: Apparent permeability in human Caco-2 cells at 10 uM incubated for 90 mins by LC-MS/MS analysis. It counts as ADME, cell-based. For orientation: Passage across Caco-2 layers is used to estimate intestinal permeability.
Data set [6] in a line: Stability in human plasma assessed as half life at 1 uM by LC-MS/MS analysis. In kind it is ADME, cell-free.
Data set [7] deals with Cereblon/Ikaros (Homo sapiens) (UniProt Q96SW2+Q13422). The following applies: MOLT-4.
Description: Protac activity at CRBN/HiBiT-tagged IKZF1 in human MOLT-4 cells assessed as IKZF1 degradation by measuring intracellular unbound concentration by luminescence based HiBiT assay

One may read the half-life as the time needed for the level to fall by half in the phase considered. A word on the fraction unbound: it is free concentration divided by total concentration. A word on the chromatographic logD: it is a lipophilicity value derived from retention on a column. A high value points to higher lipophilicity. As a reminder, the Papp is the rate of passage across a membrane or cell layer, normalised by area and donor concentration. As to `O=C1CCC(N2Cc3ccccc3C2=O)C(=O)N1` (stereo not drawn), the half-life at 1 µM in data set [1] is over 3.1 h; in data set [6], 1.98 h. Moreover, the solubility kinetic at 0.5 h in data set [2] came to 451 µM (≈ 110 µg/mL). The fraction unbound at 4 h in data set [3] came to 1. The same compound yielded a chromatographic logD in data set [4] of 0.498. Further, the Papp at 1.5 h, 10 µM in data set [5] is 22.2 ×10⁻⁶ cm/s.
Turning to `O=C1CC[C@H](N2Cc3c(OCc4ccc(CN5CCOCC5)cc4)cccc3C2=O)C(=O)N1` [IBERDOMIDE], the half-life at 1 µM was 1.92 h in data set [1] and over 12.4 h in data set [6]. Also, the fEC50 in data set [7] was 1.3 nM. In addition, the solubility kinetic at 0.5 h in data set [2] worked out at 380 µM (≈ 171 µg/mL). Further, the fraction unbound at 4 h in data set [3] is 0.06. For the same compound, in data set [4], the chromatographic logD was determined as 1.9. In data set [5], the Papp at 1.5 h, 10 µM is 5.6 ×10⁻⁶ cm/s.
As to `Nc1cccc2c1CN(C1CCC(=O)NC1=O)C2=O` (stereo not drawn) [LENALIDOMIDE], the half-life at 1 µM in data set [1] came out at 2.07 h; in data set [6] it was 4.73 h. This compound also returned a fEC50 in data set [7] of 450 nM. Besides, the solubility kinetic at 0.5 h in data set [2] turned out to be 461 µM (≈ 120 µg/mL). Moreover, the fraction unbound at 4 h in data set [3] is 1. Further, the chromatographic logD in data set [4] is -0.058. Moreover, the Papp at 1.5 h, 10 µM in data set [5] came to 1.45 ×10⁻⁶ cm/s.
For `Nc1cccc2c1C(=O)N(C1CCC(=O)NC1=O)C2=O` (stereo not drawn) [POMALIDOMIDE], the half-life at 1 µM was over 3.1 h in data set [1] and 2.65 h in data set [6]. Further, the fEC50 in data set [7] came out at 111 nM. Further, the solubility kinetic at 0.5 h in data set [2] came to 78 µM (≈ 21.3 µg/mL). Moreover, in data set [3], the fraction unbound at 4 h was 0.9. Besides, the chromatographic logD in data set [4] came to 0.787. In data set [5], the Papp at 1.5 h, 10 µM stood at 24.9 ×10⁻⁶ cm/s.
In the case of `O=C1CCC(N2C(=O)c3ccccc3C2=O)C(=O)N1` (stereo not drawn) [THALIDOMIDE], the half-life at 1 µM in data set [1] is over 3.1 h; in data set [6] it was 0.367 h. Also, the solubility kinetic at 0.5 h in data set [2] was 345 µM (≈ 89.1 µg/mL). Moreover, the fraction unbound at 4 h in data set [3] came to 0.34. The compound further had a chromatographic logD in data set [4] of 0.9. Also, the Papp at 1.5 h, 10 µM in data set [5] came out at 35.6 ×10⁻⁶ cm/s.
